Laboratory results published in patent publication US20240158370A1, “CK1 alpha AND DUAL CK1 alpha / GSPT1 DEGRADING COMPOUNDS” (Innovo Therapeutics, Inc., priority 2022, published 2024).

Experiments:
CK1α = molecular target: T1, CK1α (Homo sapiens, UniProt P48729+Q96SW2); test: HiBiT degradation assay, CK1α, Procedure A; type: cell-based; details: six hours incubation
T1 construct: CSNK1A1-HiBit KI HEK293(LgBit) Cells; host or cells: HEK293(LgBit) knock-in cells
Description: (§1) Compounds were spotted onto Cornin 384-Well, Cell Culture-Treated, Flat-Bottom, Low Flange Microplate (Fisher Scientific, Catalog #07-201-013) using a Tecan D300e digital dispenser. Ten-point dose response curves spanning from 10 μM to 0.005 μM with a 0.1% DMSO tolerance were used.
(§2) Cells were dissociated from tissue 182 cm^2 Tissue Culture Flask (CellTreat Catalog #229351) by washing the cells with PBS (Fisher Scientific Catalog #BP3994) followed by dissociation with Trypsin-EDTA (0.25%) (Thermo Scientific Catalog #25200056). Trysin was neutralized and cells were resuspended with DMEM+10% FBS. Cells were centrifuged for 5 minutes at 1200 RPMs. Cell culture media was aspirated off and cells were resuspended with DMEM+10% FBS. Cell density was determined using a Denovix CellDrop BF cell counter. Cell density was adjusted to 1×10^6 cells/ml. 40 μl of cells was added to compound treated tissue culture plates and incubated for six hours at 37° C. After six hours, cell culture plates were removed from tissue culture incubator and cooled to room temperature. 40 μl of Nano-GloHiBiT Lytic Detection Reagent (Promega, Catalog #N3040) was added to each well. Plates were placed on an orbital shaker (600 rpm) for 20 minutes. Luminescence was measured using an Envsion plate reader (Perkin Elmer). DC50 curves and Ymin were generated using a 4-parameter curve fit with GraphPad Prism software (Prism Corporation).
(§3) Results from the HiBiT assay (DC50 (nM) and Ymin (% remaining)) are shown below. All CK1α data was generated according to Procedure A. GSPT1 data for Examples 1-600, 603-620 and 703-705 was generated according to Procedure A. GSPT1 data for Examples 601, 621-702 and 706-735 was generated according to Procedure B.

GSPT1 = GSPT1 (Homo sapiens, UniProt P15170+Q96SW2); test: HiBiT degradation assay, GSPT1, Procedure A; type: cell-based; design: HiBit-GSPT1 KI HEK293(LgBit) Cells; host or cells: HEK293(LgBit) knock-in cells; details: six hours incubation
Description: as §1, §2, §3

Chain of GSPT1 (P15170 whole entry): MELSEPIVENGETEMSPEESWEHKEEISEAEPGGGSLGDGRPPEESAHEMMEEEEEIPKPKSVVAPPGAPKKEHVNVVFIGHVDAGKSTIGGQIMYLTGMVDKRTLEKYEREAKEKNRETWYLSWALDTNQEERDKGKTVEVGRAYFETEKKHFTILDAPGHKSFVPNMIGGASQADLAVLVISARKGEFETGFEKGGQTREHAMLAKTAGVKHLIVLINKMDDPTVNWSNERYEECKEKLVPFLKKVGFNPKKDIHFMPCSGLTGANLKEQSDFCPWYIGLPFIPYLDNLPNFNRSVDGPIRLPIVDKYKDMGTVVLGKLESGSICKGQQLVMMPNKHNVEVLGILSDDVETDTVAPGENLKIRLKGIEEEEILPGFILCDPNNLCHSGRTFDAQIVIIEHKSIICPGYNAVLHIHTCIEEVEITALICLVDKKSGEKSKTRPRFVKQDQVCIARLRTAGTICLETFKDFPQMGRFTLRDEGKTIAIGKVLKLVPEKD
Chain of GSPT1 (Q96SW2 whole entry): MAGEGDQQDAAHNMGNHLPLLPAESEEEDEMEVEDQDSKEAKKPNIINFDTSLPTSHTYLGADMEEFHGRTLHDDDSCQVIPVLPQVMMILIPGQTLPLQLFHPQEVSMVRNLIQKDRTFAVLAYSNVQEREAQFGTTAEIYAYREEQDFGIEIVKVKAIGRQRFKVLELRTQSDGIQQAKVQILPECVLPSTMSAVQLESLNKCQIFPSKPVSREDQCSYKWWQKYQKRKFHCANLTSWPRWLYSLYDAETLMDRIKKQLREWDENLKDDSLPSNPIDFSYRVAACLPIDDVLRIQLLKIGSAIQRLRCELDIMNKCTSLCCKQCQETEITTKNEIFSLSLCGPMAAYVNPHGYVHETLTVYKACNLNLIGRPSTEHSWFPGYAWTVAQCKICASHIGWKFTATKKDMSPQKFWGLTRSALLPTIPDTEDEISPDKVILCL
Chain of GSPT1 (Q16531 whole entry partner): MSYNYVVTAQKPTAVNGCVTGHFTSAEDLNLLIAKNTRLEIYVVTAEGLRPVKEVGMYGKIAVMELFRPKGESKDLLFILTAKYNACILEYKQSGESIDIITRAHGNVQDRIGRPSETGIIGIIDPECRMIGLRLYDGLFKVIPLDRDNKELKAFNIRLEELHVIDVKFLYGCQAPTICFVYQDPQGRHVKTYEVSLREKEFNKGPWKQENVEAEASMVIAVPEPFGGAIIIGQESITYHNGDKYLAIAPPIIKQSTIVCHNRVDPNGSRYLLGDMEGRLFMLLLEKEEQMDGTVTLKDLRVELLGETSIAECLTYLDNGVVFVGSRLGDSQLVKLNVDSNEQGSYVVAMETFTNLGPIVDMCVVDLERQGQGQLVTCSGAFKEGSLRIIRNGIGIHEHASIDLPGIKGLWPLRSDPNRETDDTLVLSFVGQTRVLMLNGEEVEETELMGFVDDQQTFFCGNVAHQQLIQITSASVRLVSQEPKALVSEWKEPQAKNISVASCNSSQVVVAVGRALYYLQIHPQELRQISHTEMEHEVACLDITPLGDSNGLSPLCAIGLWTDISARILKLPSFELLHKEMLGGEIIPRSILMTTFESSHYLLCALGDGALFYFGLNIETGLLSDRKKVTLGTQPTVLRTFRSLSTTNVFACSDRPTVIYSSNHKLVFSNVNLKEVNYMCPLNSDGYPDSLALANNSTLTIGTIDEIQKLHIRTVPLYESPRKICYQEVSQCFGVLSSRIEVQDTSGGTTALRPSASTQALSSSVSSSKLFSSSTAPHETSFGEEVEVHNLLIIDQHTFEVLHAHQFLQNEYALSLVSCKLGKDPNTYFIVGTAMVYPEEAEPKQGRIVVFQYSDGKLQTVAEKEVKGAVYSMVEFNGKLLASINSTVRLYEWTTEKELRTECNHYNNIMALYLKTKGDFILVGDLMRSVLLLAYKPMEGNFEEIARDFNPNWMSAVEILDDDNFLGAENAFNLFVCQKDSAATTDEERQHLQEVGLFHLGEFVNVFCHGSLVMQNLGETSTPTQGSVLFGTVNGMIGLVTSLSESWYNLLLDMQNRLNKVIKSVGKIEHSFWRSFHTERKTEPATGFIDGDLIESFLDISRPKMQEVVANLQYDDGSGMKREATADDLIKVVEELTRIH
T1 sequence (P48729 whole entry): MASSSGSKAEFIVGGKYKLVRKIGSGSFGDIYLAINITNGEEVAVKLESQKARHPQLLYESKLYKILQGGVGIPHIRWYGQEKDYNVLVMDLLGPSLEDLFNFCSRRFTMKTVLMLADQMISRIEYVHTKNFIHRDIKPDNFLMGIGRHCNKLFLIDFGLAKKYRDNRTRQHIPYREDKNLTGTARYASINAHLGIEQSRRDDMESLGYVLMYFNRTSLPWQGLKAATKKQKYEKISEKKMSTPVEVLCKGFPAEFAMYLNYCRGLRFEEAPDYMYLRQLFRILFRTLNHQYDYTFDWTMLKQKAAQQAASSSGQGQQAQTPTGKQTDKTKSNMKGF
T1 sequence (Q96SW2 whole entry): as the sequence (Q96SW2 whole entry) above
T1 sequence (Q16531 whole entry partner): as the sequence (Q16531 whole entry partner) above

Structure (SMILES)	CK1α Ymin (CK1α)	DC50 (CK1α)	DC50 (GSPT1)	GSPT1 Ymin (GSPT1)
Cc1noc(-c2ccccc2)c1-c1ccc2c(c1)CN(C1CCC(=O)NC1=O)C2=O (stereo not shown) [Example 29, 3-(5-(3-Methyl-5-phenylisoxazol-4-yl)-1-oxoisoindolin-2-yl)piperidine-2,6-dione]	F (F = >75-100% remaining)	≥ 25 nM	≥ 25 nM	F (F = >75-100% remaining)
Cc1n[nH]c(-c2ccccc2)c1-c1ccc2c(c1)CN(C1CCC(=O)NC1=O)C2=O (stereo not shown) [Example 30, 3-(5-(3-Methyl-5-phenyl-1H-pyrazol-4-yl)-1-oxoisoindolin-2-yl) piperidine-2,6-dione]	E (E = >25-75% remaining)	≥ 25 nM	≥ 25 nM	F (F = >75-100% remaining)
O=C1CCC(N2Cc3cc(-c4sncc4-c4ccccc4)ccc3C2=O)C(=O)N1 (stereo not shown) [Example 31, 3-(1-Oxo-5-(4-phenylisothiazol-5-yl)isoindolin-2-yl) piperidine-2,6-dione]	E (E = >25-75% remaining)	≥ 25 nM	≥ 25 nM	F (F = >75-100% remaining)
O=C1CCC(N2Cc3cc(-n4nccc4-c4ccccc4)ccc3C2=O)C(=O)N1 (stereo not shown) [Example 33, 3-(1-Oxo-5-(5-phenyl-1H-pyrazol-1-yl)isoindolin-2-yl)piperidine-2,6-dione]	E (E = >25-75% remaining)	< 25 nM	≥ 25 nM	E (E = >25-75% remaining)
Cn1nc(-c2ccccc2)cc1-c1ccc2c(c1)CN(C1CCC(=O)NC1=O)C2=O (stereo not shown) [Example 35, 3-(5-(1-Methyl-3-phenyl-1H-pyrazol-5-yl)-1-oxoisoindolin-2-yl)piperidine-2,6-dione]	F (F = >75-100% remaining)	≥ 25 nM	≥ 25 nM	F (F = >75-100% remaining)
O=C1CCC(N2Cc3cc(-c4c[nH]nc4-c4ccncc4)ccc3C2=O)C(=O)N1 (stereo not shown) [Example 38, 3-(1-Oxo-5-(3-(pyridin-4-yl)-1H-pyrazol-4-yl)isoindolin-2-yl)piperidine-2,6-dione]	E (E = >25-75% remaining)	≥ 25 nM	≥ 25 nM	F (F = >75-100% remaining)
O=C1CCC(N2Cc3cc(-c4nc(-c5ccccc5)co4)ccc3C2=O)C(=O)N1 (stereo not shown) [Example 42, 3-(1-Oxo-5-(4-phenyloxazol-2-yl)isoindolin-2-yl)piperidine-2,6-dione]	E (E = >25-75% remaining)	< 25 nM	≥ 25 nM	F (F = >75-100% remaining)
Cn1c(C2CC2)nc(-c2ccc3c(c2)CN(C2CCC(=O)NC2=O)C3=O)c1-c1cccnc1 (stereo not shown) [Example 44, 3-(5-(2-Cyclopropyl-1-methyl-5-(pyridin-3-yl)-1H-imidazol-4-yl)-1-oxoisoindolin-2-yl)piperidine-2,6-dione]	C (C = 0-10% remaining)	< 25 nM	≥ 25 nM	F (F = >75-100% remaining)
Cn1c(C2CC2)nc(-c2ccc3c(c2)CN(C2CCC(=O)NC2=O)C3=O)c1-c1ccncc1 (stereo not shown) [Example 45, 3-(5-(2-Cyclopropyl-1-methyl-5-(pyridin-4-yl)-1H-imidazol-4-yl)-1-oxoisoindolin-2-yl)piperidine-2,6-dione]	C (C = 0-10% remaining)	< 25 nM	≥ 25 nM	F (F = >75-100% remaining)
O=C1CCC(N2Cc3cc(-c4c[nH]nc4C4CC4)ccc3C2=O)C(=O)N1 (stereo not shown) [Example 47, 3-(5-(3-Cyclopropyl-1H-pyrazol-4-yl)-1-oxoisoindolin-2-yl)piperidine-2,6-dione]	E (E = >25-75% remaining)	≥ 25 nM	≥ 25 nM	F (F = >75-100% remaining)
Cn1c(C2CCCCC2)nc(-c2ccc3c(c2)CN(C2CCC(=O)NC2=O)C3=O)c1-c1ccccc1 (stereo not shown) [Example 49, 3-(5-(2-Cyclohexyl-1-methyl-5-phenyl-1H-imidazol-4-yl)-1-oxoisoindolin-2-yl)piperidine-2,6-dione]	C (C = 0-10% remaining)	< 25 nM	< 25 nM	F (F = >75-100% remaining)
Cn1c(C2CCOCC2)nc(-c2ccc3c(c2)CN(C2CCC(=O)NC2=O)C3=O)c1-c1ccccc1 (stereo not shown) [Example 50, 3-(5-(1-methyl-5-phenyl-2-(tetrahydro-2H-pyran-4-yl)-1H-imidazol-4-yl)-1-oxoisoindolin-2-yl)piperidine-2,6-dione]	C (C = 0-10% remaining)	< 25 nM	≥ 25 nM	F (F = >75-100% remaining)
O=C1CCC(N2Cc3cc(-c4nc(C(F)(F)F)[nH]c4-c4ccccc4)ccc3C2=O)C(=O)N1 (stereo not shown) [Example 53, 3-(1-Oxo-5-(5-phenyl-2-(trifluoromethyl)-1H-imidazol-4-yl)isoindolin-2-yl)piperidine-2,6-dione]	C (C = 0-10% remaining)	< 25 nM	≥ 25 nM	E (E = >25-75% remaining)
O=C1CCC(N2Cc3cc(-c4c[nH]c(-c5ccccc5)n4)ccc3C2=O)C(=O)N1 (stereo not shown) [Example 54, 3-(1-Oxo-5-(2-phenyl-1H-imidazol-4-yl)isoindolin-2-yl)piperidine-2,6-dione]	C (C = 0-10% remaining)	< 25 nM	≥ 25 nM	F (F = >75-100% remaining)
Cn1ncc(-c2ccc3c(c2)CN(C2CCC(=O)NC2=O)C3=O)c1-c1cccc(N2CCCC2)c1 (stereo not shown) [Example 55]	E (E = >25-75% remaining)	< 25 nM	≥ 25 nM	F (F = >75-100% remaining)
CNC(=O)c1ccc(-c2c(-c3ccc4c(c3)CN(C3CCC(=O)NC3=O)C4=O)cnn2C)cc1 (stereo not shown) [Example 56]	D (D = >10- 25% remaining)	≥ 25 nM	≥ 25 nM	F (F = >75-100% remaining)
Cn1ncc(-c2ccc3c(c2)CN(C2CCC(=O)NC2=O)C3=O)c1-c1ccc(C#N)cc1 (stereo not shown) [Example 57]	E (E = >25-75% remaining)	≥ 25 nM	≥ 25 nM	F (F = >75-100% remaining)
Cn1ncc(-c2ccc3c(c2)CN(C2CCC(=O)NC2=O)C3=O)c1-c1ccc(F)c(C#N)c1 (stereo not shown) [Example 58]	E (E = >25-75% remaining)	≥ 25 nM	≥ 25 nM	F (F = >75-100% remaining)
Cn1ncc(-c2ccc3c(c2)CN(C2CCC(=O)NC2=O)C3=O)c1-c1cccc(C(F)F)c1 (stereo not shown) [Example 59]	E (E = >25-75% remaining)	< 25 nM	≥ 25 nM	F (F = >75-100% remaining)
CC(C)c1ccccc1-c1c(-c2ccc3c(c2)CN(C2CCC(=O)NC2=O)C3=O)cnn1C (stereo not shown) [Example 60]	E (E = >25-75% remaining)	< 25 nM	≥ 25 nM	F (F = >75-100% remaining)
Cn1ncc(-c2ccc3c(c2)CN(C2CCC(=O)NC2=O)C3=O)c1-c1ccc(OCc2ccccc2)cc1 (stereo not shown) [Example 61]	E (E = >25-75% remaining)	< 25 nM	≥ 25 nM	F (F = >75-100% remaining)
Cn1ncc(-c2ccc3c(c2)CN(C2CCC(=O)NC2=O)C3=O)c1-c1ccc(N2CCOCC2)cc1 (stereo not shown) [Example 62]	D (D = >10- 25% remaining)	< 25 nM	≥ 25 nM	F (F = >75-100% remaining)
